Assays:
[1] = target: T1, GSTP1-1 (glutathione transferase P1-1) (Homo sapiens, UniProt P09211); assay: CDNB-GSH conjugation assay in buffer B (no detergent), pH […] °C; type: biochemical
[2] = target: T1, GSTP1-1 (glutathione transferase P1-1); assay: CDNB-GSH conjugation assay in buffer A, pH […] °C (partial, max […] inhibition; K iapp […] without Triton); also intrinsic protein fluorescence quenching with and without GSH; type: biochemical

T1 sequence (P09211 2-210): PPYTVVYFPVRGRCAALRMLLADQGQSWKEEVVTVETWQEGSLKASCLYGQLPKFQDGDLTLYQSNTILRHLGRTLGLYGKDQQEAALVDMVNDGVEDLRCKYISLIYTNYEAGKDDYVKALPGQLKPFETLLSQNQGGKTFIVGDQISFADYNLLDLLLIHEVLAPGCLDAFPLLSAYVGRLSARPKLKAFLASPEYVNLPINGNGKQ

Structure (SMILES) | Ki [1] [nM] | Ki [2] [nM]
CC(=O)OCCCCCCSc1ccc([N+](=O)[O-])c2nonc12 [compound 3, MC2752] | 600 | 
O=C(OCCCCCCSc1ccc([N+](=O)[O-])c2nonc12)c1ccccc1 [compound 2, 6-((7 nitrobenzo[c][1,2,5]oxadiazol-4-yl)thio)hexyl benzoate] |  | 3900
